From patent US3991210A, “Acetamidine urinary antiseptics” (The Dow Chemical Company, priority 1975, dated 1976)
Where a name gives a salt, the structure may show the parent alone.

Experiments:
Escherichia coli = assay: Antimicrobial activity of urine collected from mice after oral dosing, against Escherichia coli; type: in vivo; details: for urinary antiseptic activity, EC: single oral dose 56.2 mg/kg; on urinary antiseptic activity, EC: key: +: urinary antiseptic activity and inhibition of microbial growth being observed; O: no urinary antiseptic activity and no inhibition of microbial growth are observed
Procedure: (§1) Separate groups of mice are fasted overnight, but are provided with water ad libitum prior to oral administration of a substituted amidine test compound. […] Urine is collected in sterile containers at intervals over the period from 1 to 24 hours after administration of the test compound. The collected urine is assayed for antimicrobial activity against Escherichia coli, Pseudomonas aeruginosa and a Proteus species, either Proteus vulgaris or Proteus mirabilis. Urine samples collected from the separate groups of mice administered one of 2-(4-chlorophenyl)acetamidine hydrochloride, 2-(4-bromophenyl)-acetamidinehydrochloride, 2-(4-chlorophenyl)acetamidoxime hydrochloride and 2-(4-bromophenyl)acetamidoxime hydrochloride are found to be active against all three test organisms.
(§2) The procedure of Example 1 is repeated, employing the substituted amidine compound 2-(4-bromophenyl)-acetamidine hydrochloride, and the known antiseptics gentamicin and nalidixic acid as test compounds. […]

Pseudomonas aeruginosa = assay: Antimicrobial activity of urine collected from mice after oral dosing, against Pseudomonas aeruginosa; type: in vivo; details: for antimicrobial activity of urine against Pseudomonas: 60 mg/kg, similar operations; for antimicrobial activity of urine against Pseudomonas aeruginosa: oral, 50 mg/kg, urine collected 1 to 24 hours; for urinary antiseptic activity, PA: single oral dose 56.2 mg/kg; on urinary antiseptic activity, PA: key: +: urinary antiseptic activity and inhibition of microbial growth being observed; O: no urinary antiseptic activity and no inhibition of microbial growth are observed
Procedure: as §1, §2

[1] = test system: Proteus species, either Proteus vulgaris or Proteus mirabilis; assay: Antimicrobial activity of urine collected from mice after oral dosing, against a Proteus species (Example 1); type: in vivo, Proteus vulgaris or Proteus mirabilis (urine from mice); details: for antimicrobial activity of urine against Proteus: 60 mg/kg, similar operations; for antimicrobial activity of urine against Proteus species: oral, 50 mg/kg, urine collected 1 to 24 hours
Procedure: as §1

Proteus vulgaris = assay: Antimicrobial activity of urine collected from mice after oral dosing, against Proteus vulgaris (Example 2); type: in vivo; details: single oral dose 56.2 mg/kg; further: key: +: urinary antiseptic activity and inhibition of microbial growth being observed; O: no urinary antiseptic activity and no inhibition of microbial growth are observed
Procedure: Separate groups of mice are fasted overnight, but are provided with water ad libitum prior to oral administration of a substituted amidine test compound. The test compounds are administered orally at a dosage rate of 50 milligrams of test compound per kilogram of animal body weight in an aqueous carrier. Urine is collected in sterile containers at intervals over the period from 1 to 24 hours after administration of the test compound. The collected urine is assayed for antimicrobial activity against Escherichia coli, Pseudomonas aeruginosa and a Proteus species, either Proteus vulgaris or Proteus mirabilis. Urine samples collected from the separate groups of mice administered one of 2-(4-chlorophenyl)acetamidine hydrochloride, 2-(4-bromophenyl)-acetamidinehydrochloride, 2-(4-chlorophenyl)acetamidoxime hydrochloride and 2-(4-bromophenyl)acetamidoxime hydrochloride are found to be active against all three test organisms.
The procedure of Example 1 is repeated, employing the substituted amidine compound 2-(4-bromophenyl)-acetamidine hydrochloride, and the known antiseptics gentamicin and nalidixic acid as test compounds. Each test compound is administered in a single oral dose of 56.2 milligrams per kilogram; and separate urine samples are separately collected and assayed at intervals of 1, 4 and 24 hours after administration.

[2] = Acute oral lethality (LD50) in mice; details: mouse, in vivo, mice, per os, 24 hours, read-out: LD50 (dosage lethal to 50 percent of the mice)
Procedure: Separate groups of mice are separately administered an aqueous composition containing 2-(4-bromophenyl)acetamidine hydrochloride. The compound is administered per os at various dosage rates, and the animals are held for 24 hours, after which deaths are recorded, and the LD50 (dosage lethal to 50 percent of the mice) is determined.

[3] = Standard pharmacological evaluation procedures in mice; type: in vivo; details: 60 mg/kg
Procedure: In other operations, 2-(4-bromophenyl)acetamidine hydrochloride is administered to mice at a dosage rate of 60 milligrams per kilogram in a series of standard pharmacological evaluation procedures.

Proteus mirabilis [4] = assay: Proteus mirabilis urinary tract infection in Wistar rats, 14 days treatment (Example 4); type: in vivo; details: infected Wistar rats, oral
Description: (§3) Several groups of Wistar rats are surgically prepared and given a urinary tract infection by injection into the lumen of the bladder of 0.1 milliliter of a brain-heart infusion broth culture of Proteus mirabilis, in a procedure similar to that of Miraglia, Transact. N.Y. Acad. Sc. 32, 337 (1970). One group is similarly prepared surgically, but is not infected with the test organism, providing an operated, non-infected control group. Three hours after the surgical operations are complete, the animals in three of the groups (the test groups) are orally administered 100 milligrams per kilogram of nalidixic acid, or 2-(4-bromophenyl)acetamidine hydrochloride at a dosage rate of 50 or 100 milligrams per kilogram. A fourth group is not administered any test compound to serve as an infected control group.
(§4) The animals in each group are weighed daily and the test compounds are administered to the test groups daily at the same dosage rate for a total of 14 days. At the end of the 14 day test period, the animals are sacrificed. Swabs of the kidney pelvis and samples of bladder urine are obtained and examined by bacteriological culture techniques, and pathological examinations are carried out.

Proteus mirabilis [5] = assay: Proteus mirabilis urinary tract infection in Holtzman rats (Example 5); type: in vivo; details: PO
Description: as §3, §4
The operations of Example 4 are repeated using six Holtzman rats per group and using nitrofurantoin instead of nalidixic acid.

Proteus mirabilis [6] = assay: Proteus mirabilis urinary tract infection in rats, bacterial count per kidney (Example 6); type: in vivo; details: oral, three doses at 4, 28, 52 hours, 72 hours
Procedure: In a similar operation, a Proteus mirabilis urinary tract infection was established in rats using a similar surgical technique. In separate groups, the test compound 2-(4-bromophenyl)acetamidine p-toluene-sulfonate, or the reference compound nalidixic acid, were administered orally in three doses, 4, 28 and 52 hours after completion of the surgical technique used to establish the infection. Separate groups of rats were left untreated to serve as controls. After 72 hours, the animals were euthanized with carbon dioxide. The left kidney was removed, homogenized in 9 milliliters sterile saline solution, and fivefold dilutions of the resulting brei were made in brain-heart infusion broth. Bacterial counts in the dilutions were determined after 24 hours incubation at 37° C. The oral dose in milligrams per kilogram (mg/kg); millimoles per kilogram (mM); the number of animals in each group, and the base ten logarithm (Log10) of the bacterial count (number of organisms per kidney) are set out below.

[7] = oral, 50 mg/kg, urine collected 1 to 24 hours
[8] = 50 or 100 mg/kg per day, 14 days

For `NC(Cc1ccc(Cl)cc1Cl)=NO` [2-(2,4-dichlorophenylacetamidoxime hydrochloride, reference compound], the “antimicrobial activity of urine against E. coli” value (Escherichia coli; 60 mg/kg, similar operations) was “ineffective”, the “antimicrobial activity of urine against Pseudomonas” value (Pseudomonas aeruginosa) was “ineffective” and the “antimicrobial activity of urine against Proteus” value [1] was “ineffective”.
With `Cl.N=C(N)Cc1ccc(Br)cc1` [2-(4-bromophenyl)acetamidine hydrochloride] the “antimicrobial activity of urine against E. coli” value (Escherichia coli; [7]) was “active”, the “urinary antiseptic activity, EC” value (Escherichia coli; urine at 1 hour) was “+” and the “urinary antiseptic activity, EC” value (Escherichia coli; urine at 4 hours) was “+”. The “urinary antiseptic activity, EC” value (Escherichia coli; urine at 24 hours) was “+”, the “antimicrobial activity of urine against Pseudomonas aeruginosa” value (Pseudomonas aeruginosa) was “active” and the “urinary antiseptic activity, PA” value (Pseudomonas aeruginosa; urine at 1 hour) was “+”. The “urinary antiseptic activity, PA” value (Pseudomonas aeruginosa; urine at 4 hours) was “+”, the “antimicrobial activity of urine against Proteus species” value [1] was “active” and the “urinary antiseptic activity, PV” value (Proteus vulgaris; urine at 1 hour) was “+”. The “urinary antiseptic activity, PV” value (Proteus vulgaris; urine at 4 hours) was “+”, the LD50 at 24 h [2] was 562 mg/kg and the analgesic activity [3] was “no significant”. The anorectic activity [3] was “no significant”, the anti-thrombotic activity [3] was “some anti-thrombotic activity” and the antidepressant activity [3] was “no significant”. For the same compound, the hypotensive activity [3] was “no significant”, the sedative activity [3] was “no significant” and the weight gain rate (Proteus mirabilis [4]; 50 mg/kg per day, 14 days) was “normal in all but one of the rats”. The “weight gain rate after the tenth day” value (Proteus mirabilis [4]; 50 mg/kg per day, after the tenth day) was “normal for all the rats in this group after the tenth day”, the weight gain rate (Proteus mirabilis [4]; 100 mg/kg per day, 2-(4-bromophenyl)-acetamidine hydrochloride group) was “approximately mormal in all but two of the rats” and the “weight gain after the sixth day” value (Proteus mirabilis [4]; 100 mg/kg per day, after the sixth day) was “normal weight gain is observed with all but one of the test animals”. For the same compound, the “gross pathological changes attributable to the infection” value (Proteus mirabilis [4]; [8]) was “No gross pathological changes attributable to the infection”, the “infecting Proteus organism in swab and urine cultures” value (Proteus mirabilis [4]; [8]) was “no evidence of the infecting Proteus organism” and the “bacteriological culture of swabs and urine” value (Proteus mirabilis [4]; 50 or 100 mg/kg per day, 14 days, except slight E. coli growth in one rat) was “bacteriologically sterile”. The “growth of E. coli in urine and kidney swab cultures” value (Proteus mirabilis [4]; 50 or 100 mg/kg per day, one of the rats, attributed to contamination during autopsy) was “slight growth of E. coli noted in the urine and one of the kidney swabs from one of the rats”, the “Percent Infection (percent of surviving rats with Proteus infection of any degree)” value (from here on “Percent Infection”) (Proteus mirabilis [5]; 50 mg/kg) was 60.0% and the “Percent Pathology (percent total pathology signs observed over total possible observations times 100)” value (“Percent Pathology” below) (Proteus mirabilis [5]; 50 mg/kg) was 13.6%. The “Percent Weight Gain” value (Proteus mirabilis [5]; 50 mg/kg) was 16.6%, the “Percent Infection” value (Proteus mirabilis [5]; 100 mg/kg) was 20.0% and the “Percent Pathology” value (Proteus mirabilis [5]; 100 mg/kg) was 12.7%. The “Percent Weight Gain” value (Proteus mirabilis [5]; 100 mg/kg) was 19.2%.
With `Cl.NC(Cc1ccc(Br)cc1)=NO` [2-(4-bromophenyl)acetamidoxime hydrochloride] the “antimicrobial activity of urine against E. coli” value (Escherichia coli; [7]) was “active”, the “antimicrobial activity of urine against Pseudomonas aeruginosa” value (Pseudomonas aeruginosa) was “active” and the “antimicrobial activity of urine against Proteus species” value [1] was “active”.
With `Cl.N=C(N)COc1ccc(Cl)cc1` [2-(4-chlorophenoxy)acetamidine hydrochloride, reference compound] the “antimicrobial activity of urine against E. coli” value (Escherichia coli; 60 mg/kg, similar operations) was “ineffective”, the “antimicrobial activity of urine against Pseudomonas” value (Pseudomonas aeruginosa) was “ineffective” and the “antimicrobial activity of urine against Proteus” value [1] was “ineffective”.
In the case of `Cl.N=C(N)Cc1ccc(Cl)cc1` [2-(4-chlorophenyl)acetamidine hydrochloride], the “antimicrobial activity of urine against E. coli” value (Escherichia coli; [7]) is reported as “active”, the “antimicrobial activity of urine against Pseudomonas aeruginosa” value (Pseudomonas aeruginosa) is reported as “active” and the “antimicrobial activity of urine against Proteus species” value [1] is reported as “active”.
With `Cl.NC(Cc1ccc(Cl)cc1)=NO` [2-(4-chlorophenyl)acetamidoxime hydrochloride] the “antimicrobial activity of urine against E. coli” value (Escherichia coli; [7]) was “active”, the “antimicrobial activity of urine against Pseudomonas aeruginosa” value (Pseudomonas aeruginosa) was “active” and the “antimicrobial activity of urine against Proteus species” value [1] was “active”.
In the case of `Cl.NC(Cc1ccc([N+](=O)[O-])cc1)=NO` [2-(4-nitrophenyl)acetamidoxime hydrochloride, reference compound], the “antimicrobial activity of urine against E. coli” value (Escherichia coli; 60 mg/kg, similar operations) is reported as “effective against E. coli”, the “antimicrobial activity of urine against Pseudomonas” value (Pseudomonas aeruginosa) is reported as “not against the Pseudomonas or Proteus test organisms” and the “antimicrobial activity of urine against Proteus” value [1] is reported as “not against the Pseudomonas or Proteus test organisms”.
For `NC(Cc1ccccc1)=NO` [2-phenylacetamidioxime hydrochloride, reference compound], the “antimicrobial activity of urine against E. coli” value (Escherichia coli; 60 mg/kg, similar operations) was “ineffective”, the “antimicrobial activity of urine against Pseudomonas” value (Pseudomonas aeruginosa) was “ineffective” and the “antimicrobial activity of urine against Proteus” value [1] was “ineffective”.
In the case of `CCn1cc(C(=O)O)c(=O)c2ccc(C)nc21` [Nalidixic acid, nalidixic acid, reference compound], the “urinary antiseptic activity, EC” value (Escherichia coli; urine at 1 hour) is reported as “+”, the “urinary antiseptic activity, EC” value (Escherichia coli; urine at 4 hours) is reported as “+” and the “urinary antiseptic activity, PA” value (Pseudomonas aeruginosa; urine at 4 hours) is reported as “+”. For the same compound, the “urinary antiseptic activity, PV” value (Proteus vulgaris; urine at 1 hour) was “+”, the “urinary antiseptic activity, PV” value (Proteus vulgaris; urine at 4 hours) was “+” and the “bacteriological culture of kidney pelvis swabs and bladder urine” value (Proteus mirabilis [4]; 100 mg/kg per day, 14 days) was “bacteriologically sterile”. The “gross pathology attributable to the infection” value (Proteus mirabilis [4]; 100 mg/kg per day, 14 days) was “No gross pathology attributable to the infection”, the weight gain (Proteus mirabilis [4]; 100 mg/kg per day, 14 days) was “gain weight normally” and the “Mean Bacterial Count (number of organisms per kidney)” value (Proteus mirabilis [6]; 50 mg/kg) was 3.20 Log10. For the same compound, the “Mean Bacterial Count (number of organisms per kidney)” value (Proteus mirabilis [6]; 100 mg/kg) was 2.56 Log10.
In the case of `O=C1CN(/N=C/c2ccc([N+](=O)[O-])o2)C(=O)N1` [Nitrofurantoin, nitrofurantoin, reference compound], the “Percent Infection” value (Proteus mirabilis [5]; 100 mg/kg) is reported as 33.0%, the “Percent Pathology” value (Proteus mirabilis [5]; 100 mg/kg) is reported as 13.6% and the “Percent Weight Gain” value (Proteus mirabilis [5]; 100 mg/kg) is reported as 16.9%. The “Percent Weight Gain, excluding one rat with unexplained severe weight loss” value (Proteus mirabilis [5]; 100 mg/kg, excluding one rat) was 20.7%.
In the case of gentamicin, the “urinary antiseptic activity, EC” value (Escherichia coli; urine at 1 hour) is reported as “+”, the “urinary antiseptic activity, PV” value (Proteus vulgaris; urine at 1 hour) is reported as “+” and the “urinary antiseptic activity, PV” value (Proteus vulgaris; urine at 4 hours) is reported as “+”.
